Test results from patent US11583495B2, “Nasal composition comprising a mucoadhesive polymer” (Northriver Pharm, LLC, priority 2017, dated 2023).

Assay: Drug release through lamb buccal mucosa, flow-through Franz diffusion cell
Conditions: from CARBOPOL ETD 2020 NF (1%) solution containing triamcinolone and phenol
Protocol: Drug release through lamb buccal mucosa was evaluated via a flow-through Franz diffusion cell. Lamb buccal mucosa was clamped into the cell and the receptor chamber was filled with 5 mL of phosphate buffered solution (PBS). CARBOPOL® ETD 2020 NF (1%) solution containing triamcinolone and phenol was applied to the donor chamber. 0.5 mL of PBS was withdrawn from the receptor chamber every 30 minutes and replaced with fresh PBS over the course of 7 hours. Each sample was placed in a cuvette for testing via UV-Vis spectrophotometry. The sample was compared to a set of calibration standards of known concentrations for triamcinolone and phenol, independently. […] The peaks at 225 nm and 270 nm correspond to phenol, and the peak at 240 corresponds with triamcinolone.

Structure (SMILES): Oc1ccccc1 [Phenol, phenol]
- Phenol diffusion through the mucosa (UV-Vis, based on calibration curve, over 7 hours): less than 0.025%
- amounts released over time and diffused through the lamb buccal mucosa (sampled every 30 minutes over 7 hours): Increasing amounts
